Measured values as given in publication PMC9963438, “Emerging Effects of Resveratrol Derivatives in Cells Involved in Oral Wound Healing: A Preliminary Study” (International Journal of Molecular Sciences, 2023).

Key:
[1] = system: Alkaline phosphatase (ALP) activity in HOBs; assay: ALP activity assay in HOBs; format: cell-based, human; settings: 5 µM, 7 days, compared to CTRL and RSV; not statistically significant
Protocol: Alkaline phosphatase (ALP) activity was evaluated by ALP assay kit colorimetric AB83369 (Abcam Inc., Cambridge, UK). HOBs were seeded at a density of 5 × 10^4 cells/well and treated with 1d and 1h. After 7 days of culture, cell lysate was obtained, and ALP levels were measured according to the manufacturer instructions. The absorbance was measured at 450 nm by a microplate reader (Synergy H1 Hybrid BioTek Instruments, Winooski, VT, USA).

[2] = system: ALP mRNA in HOBs; assay: RT-qPCR of ALP in HOBs; format: cell-based, human; settings: all concentrations (5, 10, 20 µM), compared to CTRL; not significant
Protocol: (§1) Total RNA was isolated using Trifast reagent (EuroClone) according to the manufacturer instructions from 3 × 10^5 cells/well treated with increasing concentrations of 1d and 1h for 48 h and 72 h. Complementary DNA (cDNA) was obtained using GoTaq® 2 Step RT-qPCR Kit (Promega, Madison, WI, USA) in accordance with the manufacturer’s instructions. RT-qPCR was carried out using SYBR Green (Promega) on the Quant Studio 7 Pro Real-Time PCR System (ThermoFisher, Waltham, MA, USA). The results were normalized to glyceraldehyde 3-phoshate dehydrogenase (GAPDH) for HUVECs and HGFs and to β-actin (βACT) for HOBs using the 2^−ΔΔCt method.

[3] = Kinetic of chemical hydrolysis, pH 7.0; format: physicochemical; settings: pH 7.0, 37 °C; for Chemical hydrolysis Kobs: mean of three experiments (SD); for half-life at 18.2 µM: phosphate buffer, read-out: Chemical hydrolysis t ½ (converted)
Protocol: A phosphate buffer (PBS, pH 7.0) was used to estimate the chemical stability. The reaction was started by adding 1 mL of a 2 × 10^−4 M stock solution in ACN to a thermostatic (37 ± 0.5 °C) aqueous buffer solution (8 mL) and 2 mL of acetonitrile, containing 0.1% (v/v) Cremophor ELP. At established time points, samples (200 µL) were withdrawn and analyzed by HPLC. Pseudo-first-order rate constants (kobs) for the hydrolysis of the compound were calculated from the slopes of the linear plots of log (% residual compound) against time. The results are expressed as mean values of three different experiments.

[4] = system: OCN mRNA in HOBs; assay: RT-qPCR of OCN in HOBs; format: cell-based, human
Protocol: as §1

[5] = system: HUVECs; assay: LDH release assay on HUVECs; format: cell-based, human; settings: 24 h
Protocol: (§2) Lactate Dehydrogenase (LDH) activity in HUVECs, HGFs, and HOBs was measured with a cytotoxicity detection kit LDH (Roche, Basilea, Swiss). Firstly, 5000 cells/well (HUVECs, HGFs and HOBs) were seeded in 96-well plates and treated with 1d and 1h (5, 10, 20 µM). After 24 h, the assay was performed according to manufacturer instructions. LDH release was calculated as a percentage with respect to the control (CTRL).

[6] = system: HUVECs; assay: MTT viability/proliferation on HUVECs; format: cell-based, human
Protocol: To measure HUVECs, HGFs, and HOBs metabolic activity as an indicator of cell viability and proliferation, an MTT assay (Sigma Aldrich, Milan, Italy) was performed. In brief, 8000 cells/well (HUVECs, HGFs and HOBs) were seeded in 96-well plates and after 24 h cells were treated with increasing concentrations of 1d and 1h for 48 h and 72 h. Then, the medium was replaced by a fresh one supplemented with […] MTT and probed for 4 h at 37 °C. The medium containing MTT was discarded and replaced by an equal volume of DMSO to dissolve formazan crystals. The absorbance of the solution was read at a 540 nm wavelength by a microplate reader (Multiskan GO, Thermo Scientific, MA, USA). Values obtained without cells were considered as background. Viability and proliferation were normalized to control cells treated with DMSO 0.1%.

[7] = Water solubility; format: physicochemical; settings: deionized water, 25 °C
Protocol: An excess of compounds 1d and 1h was placed in 1 mL of deionized water and the suspension was shaken at 25 °C for 15 min to ensure the solubility equilibrium. Next, the supernatant was filtered (Millipore 0.45 µm, Burlington, Massachusetts, USA) and analyzed by HPLC [49].

[8] = system: human gingival fibroblasts (HGFs); assay: MTT cytocompatibility screening on HGFs, 24 h; format: cell-based; settings: for HGFs metabolic activity / cell viability (MTT): 10 µM, vs control (DMSO) and RSV; for HGFs cell viability (MTT): vs control and RSV
[9] = system: eNOS mRNA in HUVECs; assay: RT-qPCR of eNOS in HUVECs; format: cell-based, human
Protocol: as §1

[10] = LogP determination (n-octanol/phosphate buffer pH 7.4); format: physicochemical; settings: n-octanol/aqueous phosphate buffer, pH 7.4, n-octanol / phosphate buffer pH 7.4; mean of three experiments (SD)
Protocol: Both n-octanol and aqueous phosphate buffer (pH 7.4) solutions were saturated of each other by shaking. A total of 1 mL of n-octanol was added to an equal volume of an aqueous phosphate buffer (pH 7.4). A total of 5 mg of each compound was added and mixed by repeated inversion up to 200 times for 5 min and then allowed to stand for 30 min for the full separation of the two phases. Next, the respective phases were filtered and analyzed by HPLC [50] and the logarithm of the ratio of the concentrations of the unionized solute in the solvents (LogP) were determined.

[11] = Kinetics in human plasma (enzymatic hydrolysis); format: in vitro ADME; settings: 37 °C; for Enzymatic hydrolysis t ½ / Enzymatic hydrolysis Kobs: Human plasma; for Enzymatic hydrolysis Kobs: mean of three experiments (SD); for half-life at 40 µg/mL: human, human plasma (80%) diluted with phosphate buffer, pH 7.4, Human plasma, read-out: Enzymatic hydrolysis t ½
Protocol: Human plasma was obtained from 3H Biomedical (Uppsala, Sweden, Europe). Plasma fractions (2 mL) were diluted with […] of a 0.02 M phosphate buffer (PBS, pH 7.4) to obtain a final volume of 2.5 mL (80% of plasma). A total of 100 µL of a stock solution, prepared to dissolve 1 mg of each compound in 1 mL of ACN, was added. Studies were performed at 37 ± 0.5 °C using a shaking bath. Aliquots (100 µL) were taken at established time points and treated with 400 µL of 0.01 M HCl in methanol. After centrifugation for 15 min at 6000× g, the supernatant was filtered and analyzed by HPLC [51].

[12] = system: HGFs; assay: LDH release assay on HGFs; format: cell-based, human; settings: 24 h
Protocol: as §2

[13] = 10 and 20 µM, differences not significant
[14] = 5 µM, 72 h, vs CTRL and RSV 10 µM
[15] = 10 µM, 48 h, vs CTRL and RSV 10 µM
[16] = 10 µM, 72 h, vs CTRL and RSV 10 µM
[17] = 20 µM, 72 h, vs CTRL and RSV 10 µM

Chemical hydrolysis Kobs [3] | half-life at 18.2 µM [3] [h] | LDH release ([5]; 5 µM) | LDH release [5, 13] | Water solubility [7] | logP [10] | Enzymatic hydrolysis t ½ [11] [h] | Structure (SMILES) | ALP activity in HOBs [1] | ALP mRNA level [2] | OCN mRNA expression ([4]; 5 µM, 48 h) | OCN mRNA expression ([4]; 10 and 20 µM, 48 h) | HUVECs viability (MTT) [6, 14] | HUVECs viability (MTT) [6, 15] | HUVECs viability (MTT) [6, 16] | HUVECs viability (MTT) [6, 17] | HGFs metabolic activity / cell viability (MTT) [8] | HGFs cell viability (MTT) ([8]; 20 µM) | HGFs cell viability (MTT) ([8]; 50 µM) | eNOS mRNA expression ([9]; 5 µM, 48 h, vs CTRL and RSV) | eNOS mRNA expression ([9]; 5, 10, 20 µM, 72 h) | other results
0.050 (±0.004) h^−1 | 13.9 | lowest LDH values | slightly increased the LDH | insoluble in water | < 3 | 49.5 | Cc1ccc(S(=O)(=O)Nc2ccc(/C=C/c3ccccc3)cc2)cc1 [1d, 4-Methyl-N-{4-[(E)-2-phenylvinyl]phenyl}benzenesulfonamide] | enhanced | slight increase in the ALP mRNA level | increased after 48 h exposure to all 1d concentrations with statistical significance just for 5 µM | increased | significantly promoted cell viability with respect to RSV | slightly increased for 10 µM only with respect to RSV | viability was not enhanced | viability was not enhanced | statistically augmented the cell viability | statistically significant increase in HGF viability | positively and statistically increases cell viability | increased after 48 h exposure to all 1d concentrations with statistical significance just for 5 µM | slightly promoted the enhancement of eNOS expression | OCN mRNA expression ([4]; 5 µM, 72 h, compared to CTRL): highest significant peak; OCN mRNA expression ([4]; 10, 20 µM, 72 h): slightly promoted the enhancement of OCN expression; HUVECs viability (MTT) ([6]; 5 µM, 48 h, vs CTRL (0.1% DMSO) and RSV 10 µM): slight increase in metabolic activity at 5 µM compared to the CTRL and a significant increase compared to RSV; eNOS mRNA expression ([9]; 10 and 20 µM, 48 h, not statistically significant): increased; Enzymatic hydrolysis Kobs [11]: 0.014 (±0.005) h^−1; half-life at 40 µg/mL [11]: > 49 h; LDH release ([12]; 5 µM): lowest LDH values; LDH release [12, 13]: slightly increased the LDH
0.030 (±0.001) h^−1 | 23.4 | lowest LDH values | slightly increased the LDH | insoluble in water | < 3 | 51.7 | CCS(=O)(=O)Nc1ccc(/C=C/c2ccccc2)cc1 [1h, N-{4-[(E)-2-Phenylvinyl]phenyl}ethanesulfonamide] | same ALP levels observed in the control cells and osteoblasts treated with RSV | slight increase in the ALP mRNA level | significantly stimulated OCN levels with respect to the CTRL | slightly promoted | slightly favored cell growth with respect to RSV | viability was not induced | viability significantly decreased | viability significantly decreased | statistically augmented the cell viability | slight increase in HGF viability | no statistically significant differences | increased eNOS expression at 5 µM | slightly promoted | OCN mRNA expression ([4]; 72 h, in respect to CTRL, levels comparable to RSV): slightly increased OCN expression; HUVECs viability (MTT) ([6]; 20 µM, 48 h, vs CTRL and RSV 10 µM): viability was not induced; Enzymatic hydrolysis Kobs [11]: 0.013 (±0.003) h^−1; half-life at 40 µg/mL [11]: > 49 h; LDH release ([12]; 5 µM): lowest LDH values; LDH release [12, 13]: slightly increased the LDH
